# Measured values published in PMC9845330 (Communications Biology, 2023).
# Non-standard residues stand in square brackets, D forms with d. Residues, ends and D or L forms follow the SMILES beside them. *: point of attachment. X1 = O=C(CCCC[C@@H]1SC[C@@H]2NC(=O)N[C@@H]21)NCCCOCCOCCOCCCN*; PEG12 = NCCOCCOCCOCCOCCOCCOCCOCCOCCOCCOCCOCCOCCC(=O)O
# Tests used:
# H1299 cells = test: Cell internalization by flow cytometry, absolute uptake (molecules per cell) of peptide-streptavidin-Alexa Fluor 647; type: cell-based, human; details: for Molecules Internalized Per Cell: Average
# Text: Optimizing MGS4 as a monomer is efficient but the optimal valency of the truncated peptide may be different than that of the full-length peptide. The peptide was synthesized as a monomer (MGS4_V8), dimer (MGS4_V9), and tetramer (MGS4_V10). To obtain quantitative data, we moved from measuring the relative fluorescence of dye-labeled peptide to the determination of the average number of dye molecules internalized per cell. […] The dimer MGS4_V9 has an EC50 7-fold lower indicating there is a synergistic effect in going from a monomer to a dimer (Fig. 2a and Table 2). However, there is only a 2-fold decrease in going from a dimer to a tetrameric peptide (MGS4_V10). We also calculated the EC50 on three other NSCLC cell lines (Table 2 and Supplementary Figure 3). […] The average number of peptides internalized per cell at saturating conditions varies, with H1993 cells internalizing the highest number of peptides at all three valencies (Table 2). This is likely due to differing levels of receptor expression on the cell type. The average molecules internalized at 50 nM in one hour follows the same trend (Fig. 2b).
# Non-internalized peptide was removed, and the mean number of peptides internalized per cell was determined to calculate the EC50. Individual measurements are shown. The mean is shown as an “X”. Error bars, in black, represent standard error measurements and are below the height of the symbols in some cases. b The average number of peptide molecules per cell at 50 nM at 1 h was determined on four NSCLC cell lines and one normal human bronchial epithelial cell line (HBEC). Error bars represent SEM and individual data points are shown. c H1299 cells were incubated with 50 nM peptide-Streptavidin-Qdot605 for 1 h, removed, and replaced with normal growth media. After 24 h, cells were fixed, and counterstained with DAPI (blue). Representative maximally projected z-stacks for each group reveal no apparent difference in peptide internalization or localization. The scale bar represents 10 µm.
# Biotinylated peptide was conjugated to streptavidin-R-phycoerythrin or streptavidin-Alexa Fluor 647 (1:1 molar ratio) for 30 min. The open binding sites on streptavidin were quenched with RPMI 1640 and diluted to the indicated concentration. Tumor cells were grown to 90% confluency in a 12 well plate, then incubated with 500 µl peptide-dye conjugate at 37 °C. After 1 h, peptide was removed, and the cells were washed 3x with PBS (137 mM NaCl, 2.7 mM KCl, 10 mM Na2HPO4, 1.8 mM KH2PO4, pH 7.4), 2x with 0.1 M HCl-glycine pH2.2 in 0.9% NaCl, and 1x PBS rinse. Cells were removed by trypsinization. Flow cytometry was performed on a BD FACSCelesta, and data were analyzed on Flowing software. Cells were gated based on the forward and side scatter to include only viable cells and a minimum of 10,000 events were counted. A region containing <5% of the cells in the negative control was established, and relative peptide uptake by the mean fluorescence intensity of that population. For absolute peptide uptake per cell, a standard curve was generated using Quantum™ Alexa Fluor 647 microspheres (Bangs Laboratory, Fishers, IN). A representative linear regression showing the correlation of molecule equivalents soluble fluorophores (MESF) vs the mean fluorescence intensity (MFI) is shown in Supplemental Figure 6. Cells were gated based on the forward and side scatter to include only viable cells and a minimum of 10,000 events were counted. MFI was determined at 50% at peak height. Molecules internalized per cell were determined by the standard curve relating MESF to MFI and divided by the number dye molecules/MGS conjugate. An example is shown in supplemental Figure 7. GraphPad Prism® was used for non-linear regression curve fitting to calculate an EC50. Parameters and statistical analysis are provided (Supplementary Tables 2–6). Experiments were repeated a minimum of three times. […]
# [1] = tested on: Lysosome labelled H1299 cells; test: Colocalization with lysosomes by confocal microscopy; type: cell-based, human; details: 24 h, Streptavidin Alexa Fluor 555 conjugate
# Method: Lysosome-labelled cells (green) were treated with MGS4_V8-Streptavidin Alexa Fluor 555 for 30 min, 1 h, 4 h, or 24 h. Peptide-containing vesicles (red) are seen at 30 min separate from the labeled lysosomes, which by 1 h have started to colocalize with lysosomal vesicles (yellow). MGS4_V8 remains colocalized with lysosomes at 24 h with >70% of the signal colocalized with lysosomes (Fig. 3b). Trafficking, accumulation, and retention in the lysosomes is even more evident in the compressed maximally projected z-stack of the cells (Fig. 3c). Of note, lysosomal regeneration is observed at 24 h as witnessed by increased green signal from the GFP that is not colocalized with previously internalized MGS4_V8. […]
# The time course for lysosomal accumulation was performed by imaging at indicated time points using biotinylated peptide conjugated to Streptavidin-Alexa Fluor 555, Streptavidin-Qdot605, or streptavidin-saporin. Saporin was detected using anti-saporin rabbit polyclonal antibody AB-41AP (1:100 dilution) (Advanced Targeting Systems Bio, San Diego, CA). […] Each pixel of a single slice was evaluated for passing the threshold in red (box 1), green (box 2), or both (box3) for colocalization. Mander’s coefficients are calculated for each slice with 0 indicating no colocalization and 1 being complete colocalization.
compound,measurement,setting,value
CC(=O)N[C@@H](Cc1ccccc1)C(=O)N[C@@H](Cc1c[nH]cn1)C(=O)N[C@@H](C)C(=O)N[C@H](C(=O)N1CCC[C@H]1C(=O)N[C@@H](CCC(N)=O)C(=O)N[C@@H](CO)C(=O)N[C@@H](Cc1ccccc1)C(=O)N[C@@H](Cc1ccc(O)cc1)C(=O)N[C@H](C(=O)NCCOCCOCCOCCOCCOCCOCCOCCOCCOCCOCCOCCOCCC(=O)N[C@@H](CCC(=O)NCCCOCCOCCOCCCNC(=O)CCCC[C@@H]1SC[C@@H]2NC(=O)N[C@@H]21)C(N)=O)[C@@H](C)O)C(C)C [MGS4_V8] (Ac-FHAVPQSFYT[PEG12]E(X1)-NH2),Molecules Internalized Per Cell,H1299 cells; 0.01 nM,0
same,Molecules Internalized Per Cell,H1299 cells; 1 nM,88
same,Molecules Internalized Per Cell,H1299 cells; 10 nM,3648
same,Molecules Internalized Per Cell,H1299 cells; 20 nM,3316
same,Molecules Internalized Per Cell,H1299 cells; 30 nM,10700
same,Molecules Internalized Per Cell,H1299 cells; 40 nM,21020
same,Molecules Internalized Per Cell,H1299 cells; 50 nM,36807
same,Saturation (molecules),"H1299 cells; H1299 Cells, peptides internalized per cell at saturation","40,400 ± 5100 molecules"
same,HillSlope,H1299 cells; Supplementary Table 3,5.657
same,LogIC50,H1299 cells; Supplementary Table 3,-7.417
same,Top,"H1299 cells; Supplementary Table 3, molecules per cell",40400
same,signal colocalized with lysosomes,[1],> 70%
